Measured values taken from US8841233B2, “Herbicidal compositions comprising 4-amino-3-chloro-5-fluoro-6-(4-chloro-2-fluoro-3-methoxyphenyl) pyridine-2-carboxylic acid or a derivative thereof and 4-hydroxyphenyl-pyruvate dioxygenase (HPPD) inhibitors” (Dow Agrosciences LLC, priority 2012, dated 2014).

Columns and labels:
[1] = tested on: ECHOR; test: In-water applied weed control, transplanted paddy rice, greenhouse (Example II); format: in vivo, Echinochloa oryzoides (Ard.) Fritsch
Method: (§1) Evaluation of in-Water Applied Herbicidal Mixtures for Weed Control in Transplanted Paddy Rice
(§2) Weed seeds or nutlets of the desired test plant species were planted in puddled soil (mud) prepared by mixing a shredded, non-sterilized mineral soil (50.5 percent silt, 25.5 percent clay, and 24 percent sand, with a pH of about 7.6 and an organic matter content of about 2.9 percent) and water at a 1:1 volumetric ratio. The prepared mud was dispensed in 365 mL aliquots into 16-ounce (oz.) non-perforated plastic pots with a surface area of 86.59 square centimeters (cm^2) leaving a headspace of 3 centimeters (cm) in each pot. Mud was allowed to dry overnight prior to planting or transplanting. Rice seeds were planted in Sun Gro MetroMix® 306 planting mixture, which typically has a pH of 6.0 to 6.8 and an organic matter content of about 30 percent, in plastic plug trays. Seedlings at the second or third leaf stage of growth were transplanted into 840 mL of mud contained in 32-oz. non-perforated plastic pots with a surface area of 86.59 cm^2 4 days prior to herbicide application. The paddy was created by filling the headspace of the pots with 2.5 to 3 cm of water. When required to ensure good germination and healthy plants, a fungicide treatment and/or other chemical or physical treatment was applied. The plants were grown for 4-22 days in a greenhouse with an approximate 14 h photoperiod which was maintained at about 29′C during the day and 26° C. during the night. Nutrients were added as Osmocote® (19:6:12, N:P:K+ minor nutrients) at 2 g per 16-oz. pot and 4 g per 32-oz. pot. Water was added on a regular basis to maintain the paddy flood, and supplemental lighting was provided with overhead metal halide 1000-Watt lamps as necessary. The plants were employed for testing when they reached the first through fourth true leaf stage.
(§3) Treatments consisted of the acid or esters of 4-amino-3-chloro-5-fluoro-6-(4-chloro-2-fluoro-3-methoxy-phenyl)pyridine-2-carboxylic acid (compound A) each formulated as an SC (suspension concentrate) and various herbicidal components alone and in combination. Forms of compound A were applied on an acid equivalent basis.
(§4) Other herbicidal components were applied on an active ingredient basis and included 4-hydroxyphenyl pyruvate dioxygenase (HPPD)-inhibiting herbicides mesotrione formulated as Callisto®, sulcotrione formulated as Mikado®, pyrazolynate formulated as Sunbird® 10% GR, and benzobicyclon formulated as Benzobicyclon 3.5% or technical material.
(§5) Treatment requirements for each compound or herbicidal component were calculated based upon the rates being tested, the concentration of active ingredient or acid equivalent in the formulation, an application volume of 2 mL per component per pot, and an application area of 86.59 cm^2 per pot.
(§6) For formulated compounds, a measured amount was placed in an individual 100 or 200 mL glass vial and was dissolved in a volume of 1.25% (v/v) Agri-Dex® crop oil concentrate to obtain application solutions.
(§7) For technical grade compounds, a weighed amount was placed in an individual 100 to 200 mL glass vial and was dissolved in a volume of acetone to obtain concentrated stock solutions. […] The concentrated stock solutions obtained were diluted with an equivalent volume of an aqueous mixture containing 2.5% (v/v) crop oil concentrate so that the final application solutions contained 1.25% (v/v) crop oil concentrate.
(§8) Applications were made by injecting with a pipetter appropriate amounts of the application solutions, individually and sequentially, into the aqueous layer of the paddy. Control plants were treated in the same manner with the solvent blank. Applications were made so that all treated plant material received the same concentrations of acetone and crop oil concentrate.
(§9) The treated plants and control plants were placed in a greenhouse as described above and water was added as needed to maintain a paddy flood. […]

[2] = tested on: SCPMA; test: as above; format: in vivo
Method: as §1, §2, §3, §4, §5, §6, §7, §8, §9

`COc1c(Cl)ccc(-c2nc(C(=O)O)c(Cl)c(N)c2F)c1F` [Compound A Acid, 4-amino-3-chloro-6-(4-chloro-2-fluoro-3-methoxyphenyl)-5-fluoropyridine-2-carboxylic acid] was tested, and the “Visual Weed Control (%) - 22 DAA ECHOR Obs” value ([1]; 21.2 gae/ha) was 20%, the “Visual Weed Control (%) - 20 DAA ECHOR Obs” value ([1]; 42.4 gae/ha) was 18% and the “Visual Weed Control (%) - 22 DAA ECHOR Obs” value ([1]; 42.4 gae/ha) was 40%. For the same compound, the “Visual Weed Control (%) - 20 DAA ECHOR Obs” value ([1]; 84.8 gae/ha) was 33%, the “Visual Weed Control (%) - 21 DAA SCPMA Obs” value ([2]; 8.75 gae/ha) was 0% and the “Visual Weed Control (%) - 21 DAA SCPMA Obs” value ([2]; 17.5 gae/ha) was 0%. For the same compound, the “Visual Weed Control (%) - 21 DAA SCPMA Obs” value ([2]; 35 gae/ha) was 0%.

`COc1c(Cl)ccc(-c2nc(C(=O)OCc3ccccc3)c(Cl)c(N)c2F)c1F` [Compound A Benzyl Ester, benzyl ester of 4-amino-3-chloro-5-fluoro-6-(4-chloro-2-fluoro-3-methoxy-phenyl)pyridine-2-carboxylic acid] was tested, and the “Visual Weed Control (%) - 20 DAA ECHOR Obs” value ([1]; 4.38 gae/ha) was 10%, the “Visual Weed Control (%) - 21 DAA ECHOR Obs” value ([1]; 4.38 gae/ha) was 25% and the “Visual Weed Control (%) - 20 DAA ECHOR Obs” value ([1]; 8.75 gae/ha) was 20%. For the same compound, the “Visual Weed Control (%) - 21 DAA ECHOR Obs” value ([1]; 8.75 gae/ha) was 25%, the “Visual Weed Control (%) - 22 DAA ECHOR Obs” value ([1]; 8.75 gae/ha) was 40% and the “Visual Weed Control (%) - 20 DAA ECHOR Obs” value ([1]; 17.5 gae/ha) was 30%. The “Visual Weed Control (%) - 21 DAA ECHOR Obs” value ([1]; 17.5 gae/ha) was 60%, the “Visual Weed Control (%) - 22 DAA ECHOR Obs” value ([1]; 17.5 gae/ha) was 95% and the “Visual Weed Control (%) - 21 DAA ECHOR Obs” value ([1]; 96 gae/ha) was 80%. For the same compound, the “Visual Weed Control (%) - 21 DAA SCPMA Obs” value ([2]; 4.38 gae/ha) was 0%, the “Visual Weed Control (%) - 21 DAA SCPMA Obs” value ([2]; 8 gae/ha) was 0% and the “Visual Weed Control (%) - 21 DAA SCPMA Obs” value ([2]; 8.75 gae/ha) was 0%. The “Visual Weed Control (%) - 21 DAA SCPMA Obs” value ([2]; 16 gae/ha) was 0%, the “Visual Weed Control (%) - 21 DAA SCPMA Obs” value ([2]; 17.5 gae/ha) was 0% and the “Visual Weed Control (%) - 21 DAA SCPMA Obs” value ([2]; 32 gae/ha) was 0%. The “Visual Weed Control (%) - 21 DAA SCPMA Obs” value ([2]; 48 gae/ha) was 0% and the “Visual Weed Control (%) - 21 DAA SCPMA Obs” value ([2]; 96 gae/ha) was 0%.
